Measured values published in patent publication US20260265256A1 (IMPACT THERAPEUTICS (SHANGHAI), INC., priority 2023, published 2026).

Biological target: recombinant poly(ADP-ribose) polymerase 2 (PARP2) (Homo sapiens, UniProt Q9UGN5)
Test: PARP2 chemiluminescent assay
Assay type: biochemical
Settings: PARP2 enzyme activity, chemiluminescence, 40 ng enzyme/well
Procedure: The solution of recombinant poly(ADP-ribose) polymerase 1 and 2 (PARP1 and PARP2) (40 ng enzyme/well) and the compounds to be tested were mixed, respectively. The solutions were added to a 96-well plate coated with histone mixture, incubated at room temperature for 1 h, then 50 μL 0.3 ng/mL Streptavidin-HRP was added to each well. The plates were incubated for 30 minutes at room temperature. Finally, the plates were treated with streptavidin-HRP followed by addition of the ELISA ECL substrate to produce chemiluminescence that can be measured using a chemiluminescence reader. Inhibition of the tested compound to PARP1/2 enzyme activity was calculated according to the following formula. [formula] IC50 value is obtained by fitting the s-shaped dose response curve equation by using XL Fit software.

Sequence of recombinant poly(ADP-ribose) polymerase 2 (PARP2) (Q9UGN5 whole entry): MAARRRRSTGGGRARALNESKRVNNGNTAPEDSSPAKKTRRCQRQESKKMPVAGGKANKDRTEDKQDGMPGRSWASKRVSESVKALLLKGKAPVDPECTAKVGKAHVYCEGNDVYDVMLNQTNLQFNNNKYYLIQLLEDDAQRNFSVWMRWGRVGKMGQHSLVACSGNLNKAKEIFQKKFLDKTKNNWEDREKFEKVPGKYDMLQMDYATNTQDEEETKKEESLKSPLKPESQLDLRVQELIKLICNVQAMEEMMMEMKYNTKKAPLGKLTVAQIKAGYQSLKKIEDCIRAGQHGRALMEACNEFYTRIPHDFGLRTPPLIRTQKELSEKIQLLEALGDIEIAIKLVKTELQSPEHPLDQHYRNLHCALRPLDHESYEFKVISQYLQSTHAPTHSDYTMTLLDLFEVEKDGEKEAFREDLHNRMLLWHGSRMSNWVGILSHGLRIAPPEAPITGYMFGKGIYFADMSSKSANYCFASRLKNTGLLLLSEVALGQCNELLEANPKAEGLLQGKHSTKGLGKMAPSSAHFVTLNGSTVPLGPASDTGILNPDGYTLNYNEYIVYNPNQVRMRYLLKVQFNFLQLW

| IC50 [nM] | SMILES |
| --- | --- |
| > 10000 | CNC(=O)c1ccc(-n2cc3c(n2)CCN(Cc2ccc4c([nH]c(=O)c5c(C)cnn54)c2F)C3)cn1 [Example 10-1, 5-(5-((6-fluoro-3-methyl-4-oxo-4,5-dihydropyrazolo[1,5-a]quinoxalin-7-yl)methyl)-4,5,6,7-tetrahydro-2H-pyrazolo[4,3-c]pyridin-2-yl)-N-methylpicolinamide] |
| > 10000 | CNC(=O)c1ccc(-n2ncc3c2CCN(Cc2ccc4c([nH]c(=O)c5c(C)cnn54)c2F)C3)cn1 [Example 10-2, 5-(5-((6-fluoro-3-methyl-4-oxo-4,5-dihydropyrazolo[1,5-a]quinoxalin-7-yl)methyl)-4,5,6,7-tetrahydro-1H-pyrazolo[4,3-c]pyridin-1-yl)-N-methylpicolinamide] |
| > 10000 | O=C(NC1CC1)c1ccc(-n2cc3c(n2)CN(Cc2ccc4c([nH]c(=O)c5c(F)cnn54)c2F)C3)c(F)n1 [Example 21, N-cyclopropyl-5-(5-((3,6-difluoro-4-oxo-4,5-dihydropyrazolo[1,5-a]quinoxalin-7-yl)methyl)-5,6-dihydropyrrolo[3,4-c]pyrazol-2(4H)-yl)-6-fluoropicolinamide] |

Test system: MDA-MB-436 cells
Test: Growth inhibition assay against BRCA mutant human breast cancer MDA-MB-436 cell line (CCK-8, 7 days)
Assay type: cell-based
Settings: 168 h, MDA-MB-436, 7 days, read-out: IC50 (nM), proliferation of human breast cancer cells MDA-MB-436
Procedure: The cells were cultured in complete medium (DMEM medium+10% FBS+Insulin+glutathione). When the confluence reached about 80%, cells were digested and gently dispensed from the bottom of the dish with a 1 mL pipette. Cell suspension was collected and centrifuged at 500 rpm for 3 min. The supernatant was discarded, and the cell pellet were re-suspended in complete medium. The cells were seeded into a culture dish at an appropriate proportion, and then cultured in a 5% CO2 incubator at 37° C. The assay was carried out when the cells were in optimum condition and the confluence was reached 80%. Cells in the logarithmic growth phase were taken to centrifugate, and the culture supernatant was removed. The cells were resuspended in refresh complete medium and counted. The resuspended cells were seeded at 3000/well in a 96-well plate and incubated at 37° C., 5% CO2 incubator overnight. […] The solution was mixed by oscillation. 0.10% DMSO was used as the control.
The next day, the 96-well plate inoculated with cells was taken out from the incubator, and the culture supernatant was removed. Then fresh medium of 195 uL/well and 5 μL/well of 40× test compound solution as mentioned above were added into the 96 well plate, respectively. Finally, the plate was incubated for 7 days in a 37° C. 5% CO2 incubator. The medium containing compound was changed on the fourth day. After 7 days, 20 μL of CCK-8 was added to each well and shaken gently, then was cultured for 4 hours. The plate was shaken for 5 min after incubation, the absorbance values of 450 nm or 650 nm wavelengths were recorded respectively (OD=absorbance value of 450 nm−absorbance value of 650 nm) by using the multifunction readout instrument.
Data were analyzed by software GraphPad Prism 6.0. The inhibitory activity of compounds on cell proliferation was plotted using cell survival rate against the compound concentration as coordinates. Cell survival rate %=(ODcompound−ODbackground)/(ODDMSO−ODbackground)×100.
Table 2 summarizes the inhibitory effect data (IC50) of the compounds on the proliferation of human breast cancer cells MDA-MB-436.

| IC50 [nM] | SMILES |
| --- | --- |
| 57 | CNC(=O)c1ccc(-n2cc3c(n2)CN(Cc2ccc4c([nH]c(=O)c5c(C)cnn54)c2F)C3)c(C)n1 [Example 2, 5-(5-((6-fluoro-3-methyl-4-oxo-4,5-dihydropyrazolo[1,5-a]quinoxalin-7-yl)methyl)-5,6-dihydropyrrolo[3,4-c]pyrazol-2(4H)-yl)-N,6-dimethylpicolinamide] |
| > 100 | CNC(=O)c1ccc(-n2cc3c(n2)CN(Cc2ccc4c([nH]c(=O)c5c(C)cnn54)c2F)C3)c(O)n1 [Example 5, 5-(5-((6-fluoro-3-methyl-4-oxo-4,5-dihydropyrazolo[1,5-a]quinoxalin-7-yl)methyl)-5,6-dihydropyrrolo[3,4-c]pyrazol-2(4H)-yl)-6-hydroxy-N-methylpicolinamide] |
| 27.2 | CCNC(=O)c1ccc(-n2cc3c(n2)CN(Cc2ccc4c([nH]c(=O)c5c(C)cnn54)c2F)C3)c(F)n1 [Example 7, N-ethyl-6-fluoro-5-(5-((6-fluoro-3-methyl-4-oxo-4,5-dihydropyrazolo[1,5-a]quinoxalin-7-yl)methyl)-5,6-dihydropyrrolo[3,4-c]pyrazol-2(4H)-yl)picolinamide] |
| > 100 | CNC(=O)c1ccc(-n2cc3c(n2)CN(Cc2ccc4c([nH]c(=O)c5c(F)cnn54)c2F)C3)c(O)n1 [Example 17, 5-(5-((3,6-difluoro-4-oxo-4,5-dihydropyrazolo[1,5-a]quinoxalin-7-yl)methyl)-5,6-dihydropyrrolo[3,4-c]pyrazol-2(4H)-yl)-6-hydroxy-N-methylpicolinamide] |
| > 100 | CNC(=O)c1ccc(-n2cc3c(n2)CCN(Cc2ccc4c([nH]c(=O)c5c(F)cnn54)c2F)C3)cn1 [Example 22, 5-(5-((3,6-difluoro-4-oxo-4,5-dihydropyrazolo[1,5-a]quinoxalin-7-yl)methyl)-4,5,6,7-tetrahydro-2H-pyrazolo[4,3-c]pyridin-2-yl)-N-methylpicolinamide] |
| > 100 | CNC(=O)c1ccc(-n2cc3c(n2)CCN(Cc2ccc4c([nH]c(=O)c5c(F)cnn54)c2F)C3)c(C)n1 [Example 23, 5-(5-((3,6-difluoro-4-oxo-4,5-dihydropyrazolo[1,5-a]quinoxalin-7-yl)methyl)-4,5,6,7-tetrahydro-2H-pyrazolo[4,3-c]pyridin-2-yl)-N,6-dimethylpicolinamide] |
| 18.4 | CNC(=O)c1ccc(-c2nc3c(o2)CN(Cc2ccc4c([nH]c(=O)c5c(C)cnn54)c2F)C3)cn1 [Example 32, 5-(5-((6-fluoro-3-methyl-4-oxo-4,5-dihydropyrazolo[1,5-a]quinoxalin-7-yl)methyl)-5,6-dihydro-4H-pyrrolo[3,4-d]oxazol-2-yl)-N-methylpicolinamide] |
| > 100 | CNC(=O)c1ccc(-c2nc3c(s2)CN(Cc2ccc4c([nH]c(=O)c5c(C)cnn54)c2F)C3)cn1 [Example 33, 5-(5-((6-fluoro-3-methyl-4-oxo-4,5-dihydropyrazolo[1,5-a]quinoxalin-7-yl)methyl)-5,6-dihydro-4H-pyrrolo[3,4-d]thiazol-2-yl)-N-methylpicolinamide] |
| > 100 | CNC(=O)c1ccc(-n2nc3c(c2C)CN(Cc2ccc4c([nH]c(=O)c5c(F)cnn54)c2F)C3)cn1 [Example 40, 5-(5-((3,6-difluoro-4-oxo-4,5-dihydropyrazolo[1,5-a]quinoxalin-7-yl)methyl)-3-methyl-5,6-dihydropyrrolo[3,4-c]pyrazol-2(4H)-yl)-N-methylpicolinamide] |
| 2.16 | CNC(=O)c1ccc(-c2cc3c(o2)CN(Cc2ccc4c([nH]c(=O)c5c(F)cnn54)c2F)C3)cn1 [Example 46, 5-(5-((3,6-difluoro-4-oxo-4,5-dihydropyrazolo[1,5-a]quinoxalin-7-yl)methyl)-5,6-dihydro-4H-furo[2,3-c]pyrrol-2-yl)-N-methylpicolinamide] |
| > 100 | CNC(=O)c1ccc(N2CC3CN(Cc4ccc5c([nH]c(=O)c6c(F)cnn65)c4F)CC3C2)c(F)n1 (stereo not drawn) [Example 61, 5-(5-((3,6-difluoro-4-oxo-4,5-dihydropyrazolo[1,5-a]quinoxalin-7-yl)methyl)hexahydropyrrolo[3,4-c]pyrrol-2(1H)-yl)-6-fluoro-N-methylpicolinamide] |
| > 100 | CNC(=O)c1ccc(N2CC3CN(Cc4ccc5c([nH]c(=O)c6c(C)cnn65)c4F)CC3C2)c(F)n1 (stereo not drawn) [Example 64, 6-fluoro-5-(5-((6-fluoro-3-methyl-4-oxo-4,5-dihydropyrazolo[1,5-a]quinoxalin-7-yl)methyl)hexahydropyrrolo[3,4-c]pyrrol-2(1H)-yl)-N-methylpicolinamide] |

The remaining lines, values behind:

| SMILES | IC50 [nM] |
| --- | --- |
| CNC(=O)c1ccc(-n2cc3c(n2)CN(Cc2ccc4c([nH]c(=O)c5c(C)cnn54)c2F)C3)c(F)n1 [Example 3, 5-(5-((6-fluoro-3-methyl-4-oxo-4,5-dihydropyrazolo[1,5-a]quinoxalin-7-yl)methyl)-5,6-dihydropyrrolo[3,4-c]pyrazol-2(4H)-yl)-6-fluoro-N-methylpicolinamide] | 9.71 |
| CNC(=O)c1ccc(-n2cc3c(n2)CN(Cc2ccc4c([nH]c(=O)c5c(C)cnn54)c2F)C3)c(Cl)n1 [Example 4, 5-(5-((6-fluoro-3-methyl-4-oxo-4,5-dihydropyrazolo[1,5-a]quinoxalin-7-yl)methyl)-5,6-dihydropyrrolo[3,4-c]pyrazol-2(4H)-yl)-6-chloro-N-methylpicolinamide] | 91 |
| CNC(=O)c1ccc(-n2cc3c(n2)CCN(Cc2ccc4c([nH]c(=O)c5c(C)cnn54)c2F)C3)cn1 [Example 10-1, 5-(5-((6-fluoro-3-methyl-4-oxo-4,5-dihydropyrazolo[1,5-a]quinoxalin-7-yl)methyl)-4,5,6,7-tetrahydro-2H-pyrazolo[4,3-c]pyridin-2-yl)-N-methylpicolinamide] | > 100 |
| CNC(=O)c1ccc(-n2ncc3c2CCN(Cc2ccc4c([nH]c(=O)c5c(C)cnn54)c2F)C3)cn1 [Example 10-2, 5-(5-((6-fluoro-3-methyl-4-oxo-4,5-dihydropyrazolo[1,5-a]quinoxalin-7-yl)methyl)-4,5,6,7-tetrahydro-1H-pyrazolo[4,3-c]pyridin-1-yl)-N-methylpicolinamide] | > 100 |
| O=C(NC1CC1)c1ccc(-n2cc3c(n2)CN(Cc2ccc4c([nH]c(=O)c5c(F)cnn54)c2F)C3)cn1 [Example 20, 5-(5-((3,6-difluoro-4-oxo-4,5-dihydropyrazolo[1,5-a]quinoxalin-7-yl)methyl)-5,6-dihydropyrrolo[3,4-c]pyrazol-2(4H)-yl)-N-cyclopropylpicolinamide] | 0.65 |
| O=C(NC1CC1)c1ccc(-n2cc3c(n2)CN(Cc2ccc4c([nH]c(=O)c5c(F)cnn54)c2F)C3)c(F)n1 [Example 21, N-cyclopropyl-5-(5-((3,6-difluoro-4-oxo-4,5-dihydropyrazolo[1,5-a]quinoxalin-7-yl)methyl)-5,6-dihydropyrrolo[3,4-c]pyrazol-2(4H)-yl)-6-fluoropicolinamide] | 2.14 |
| CNC(=O)c1ccc(-n2cc3c(n2)CCN(Cc2ccc4c([nH]c(=O)c5c(F)cnn54)c2F)C3)c(F)n1 [Example 24, 5-(5-((3,6-difluoro-4-oxo-4,5-dihydropyrazolo[1,5-a]quinoxalin-7-yl)methyl)-4,5,6,7-tetrahydro-2H-pyrazolo[4,3-c]pyridin-2-yl)-6-fluoro-N-methylpicolinamide] | > 100 |
| CNC(=O)c1ccc(-c2nc3c(n2C)CN(Cc2ccc4c([nH]c(=O)c5c(F)cnn54)c2F)C3)cn1 [Example 44, 5-(5-((3,6-difluoro-4-oxo-4,5-dihydropyrazolo[1,5-a]quinoxalin-7-yl)methyl)-1-methyl-1,4,5,6-tetrahydropyrrolo[3,4-d]imidazol-2-yl)-N-methylpicolinamide] | > 100 |
| CNC(=O)c1ccc(-c2cc3c(s2)CN(Cc2ccc4c([nH]c(=O)c5c(F)cnn54)c2F)C3)cn1 [Example 47, 5-(5-((3,6-difluoro-4-oxo-4,5-dihydropyrazolo[1,5-a]quinoxalin-7-yl)methyl)-5,6-dihydro-4H-thieno[2,3-c]pyrrol-2-yl)-N-methylpicolinamide] | 14.4 |
